The values that follow are results of earlier work, collected in EP0398143B1, “Labeled chemotactic peptides to image focal sites of infection or inflammation” (THE GENERAL HOSPITAL CORPORATION, priority 1989, dated 1990).

Non-standard residues stand in square brackets, D forms with d. Residues, ends and D or L forms follow the SMILES beside them. *: point of attachment. Nle = CCCC[C@H](N)C(=O)O; For = O=C*

This series addresses T1, receptors on human neutrophils (Homo sapiens, UniProt P21462).
T1 construct: host or cells: human neutrophils (endogenous receptor)
T1 sequence (P21462 1-350): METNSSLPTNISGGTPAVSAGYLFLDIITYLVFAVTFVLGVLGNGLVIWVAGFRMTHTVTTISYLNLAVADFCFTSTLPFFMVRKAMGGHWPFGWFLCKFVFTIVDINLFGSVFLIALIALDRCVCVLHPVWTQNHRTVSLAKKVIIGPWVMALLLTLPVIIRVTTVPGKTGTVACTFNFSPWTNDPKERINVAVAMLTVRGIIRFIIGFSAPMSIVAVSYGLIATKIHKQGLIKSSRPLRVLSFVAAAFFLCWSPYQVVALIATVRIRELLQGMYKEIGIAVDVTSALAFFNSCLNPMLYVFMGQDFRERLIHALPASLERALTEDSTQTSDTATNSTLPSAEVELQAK
To be noted: peptide labeled with ¹²⁵I at the Tyr residue.

As to `CCCC[C@H](NC=O)C(=O)N[C@@H](CC(C)C)C(=O)N[C@@H](Cc1ccccc1)C(=O)N[C@@H](CCCC)C(=O)N[C@@H](Cc1ccc(O)cc1)C(=O)N[C@@H](CCCCN)C(=O)O` [N-formyl-Nle-Leu-Phe-Nle-Tyr-Lys] (For-[Nle]LF[Nle]YK-OH), the “binding to receptors on human neutrophils” value is on record as “bind strongly”.
